How the values were obtained:
[1] = Solid-state stability by XRPD under stress, accelerated and room-temperature conditions; format: physicochemical; conditions: high temperature (60°C), high humidity (25°C/92.5%RH), accelerated (40°C/75%RH), room temperature (25°C/60%RH), open
[2] = Crystal form by XRPD after DVS; format: physicochemical; conditions: humidity 50%-95%-0%-50%
[3] = Hygroscopicity by dynamic moisture adsorption and desorption (DVS); format: physicochemical; conditions: humidity 50%-95%-0%-50%
[4] = Thermodynamic stability by competitive slurry, XRPD (Example 34); format: physicochemical; conditions: suspended in saturated acetonitrile or MTBE solution, equal amounts of form E and form AH, 6 days
Tyk2 = Tyk2 (Homo sapiens, UniProt P29597); conditions: recorded in PCT/CN2021/134929; cited from earlier work
Chain of Tyk2 (P29597 whole entry, species assumed): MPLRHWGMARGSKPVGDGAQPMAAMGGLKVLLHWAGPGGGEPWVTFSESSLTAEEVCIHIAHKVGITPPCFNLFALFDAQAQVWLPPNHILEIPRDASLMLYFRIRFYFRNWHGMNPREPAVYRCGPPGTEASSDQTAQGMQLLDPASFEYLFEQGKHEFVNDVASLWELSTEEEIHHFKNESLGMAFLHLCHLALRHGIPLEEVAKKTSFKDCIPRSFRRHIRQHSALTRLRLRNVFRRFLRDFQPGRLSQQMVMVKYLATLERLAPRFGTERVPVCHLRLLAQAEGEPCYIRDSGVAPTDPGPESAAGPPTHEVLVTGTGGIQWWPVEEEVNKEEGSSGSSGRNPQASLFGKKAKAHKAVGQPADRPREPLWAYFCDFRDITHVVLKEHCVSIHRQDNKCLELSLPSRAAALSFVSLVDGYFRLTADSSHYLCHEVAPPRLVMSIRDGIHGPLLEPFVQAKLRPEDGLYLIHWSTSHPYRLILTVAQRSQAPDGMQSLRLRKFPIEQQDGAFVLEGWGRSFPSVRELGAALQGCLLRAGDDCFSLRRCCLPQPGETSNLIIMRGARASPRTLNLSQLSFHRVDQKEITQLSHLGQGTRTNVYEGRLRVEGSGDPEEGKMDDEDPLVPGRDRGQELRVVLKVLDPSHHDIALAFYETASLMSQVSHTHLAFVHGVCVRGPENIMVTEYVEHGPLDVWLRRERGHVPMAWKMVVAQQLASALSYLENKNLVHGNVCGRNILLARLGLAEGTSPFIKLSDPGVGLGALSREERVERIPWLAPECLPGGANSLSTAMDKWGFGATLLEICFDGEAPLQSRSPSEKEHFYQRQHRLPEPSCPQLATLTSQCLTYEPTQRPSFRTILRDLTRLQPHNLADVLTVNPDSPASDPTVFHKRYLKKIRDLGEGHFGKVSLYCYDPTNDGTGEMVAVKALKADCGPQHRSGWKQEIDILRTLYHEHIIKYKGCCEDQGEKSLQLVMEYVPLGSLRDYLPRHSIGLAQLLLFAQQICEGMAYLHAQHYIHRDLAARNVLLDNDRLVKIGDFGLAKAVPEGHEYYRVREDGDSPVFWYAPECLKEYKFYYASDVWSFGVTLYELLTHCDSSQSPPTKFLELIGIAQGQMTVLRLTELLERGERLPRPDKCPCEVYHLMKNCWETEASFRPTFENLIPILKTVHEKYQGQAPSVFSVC

[5] = light not given in the conclusion

SMILES: CCONC(=O)c1cnc(Nc2cc(C)nc(C)n2)cc1Nc1cccc(-c2ncccn2)c1OC.O=C(O)CC(O)C(=O)O [malic acid eutectic crystal form Type A]
- stability [1, 5]: remains stable
- crystalline transformation before and after the DVS test [2]: did not crystallize before and after the DVS test. type transformation
- hygroscopicity [3]: slightly hygroscopic

SMILES: CCONC(=O)c1cnc(Nc2cc(C)nc(C)n2)cc1Nc1cccc(-c2ncccn2)c1OC [unsolvated crystalline form AH]
- stability ([1]; light (25°C/4500Lux)): remains stable
- crystalline transformation before and after the DVS test [2]: did not undergo a crystalline transformation
- hygroscopicity [3]: has hygroscopicity

SMILES: CCONC(=O)c1cnc(Nc2cc(C)nc(C)n2)cc1Nc1cccc(-c2ncccn2)c1OC [unsolvated crystalline form E]
- stability [1, 5]: remains stable
- thermodynamic stability [4]: higher stability than Form AH
- crystalline transformation before and after the DVS test [2]: does not undergo a crystalline transformation
- hygroscopicity [3]: no hygroscopicity

SMILES: CCONC(=O)c1cnc(Nc2cc(C)nc(C)n2)cc1Nc1cccc(-c2ncccn2)c1OC.O=C(O)CC(O)(CC(=O)O)C(=O)O [citric acid eutectic crystal form Type A]
- stability [1, 5]: remains stable
- crystalline transformation before and after the DVS test [2]: did not crystallize before and after the DVS test. type transformation
- hygroscopicity [3]: almost no hygroscopicity

SMILES: CCONC(=O)c1cnc(Nc2cc(C)nc(C)n2)cc1Nc1cccc(-c2ncccn2)c1OC [compound represented by formula (I), 6-(((2,6-二甲基嘧啶-4-基)氨基)-N-乙氧基-4-((2-甲氧基-3-(嘧啶-2-基)苯基)氨基)烟酰胺]
- Tyk2 selective inhibitory activity (Tyk2): excellent Tyk2 selective inhibitory activity

SMILES: CCONC(=O)c1cnc(Nc2cc(C)nc(C)n2)cc1Nc1cccc(-c2ncccn2)c1OC.O=C(O)/C=C\C(=O)O [maleate crystal form Type A]
- stability [1, 5]: remains stable
- crystalline transformation before and after the DVS test [2]: does not undergo crystalline transformation
- hygroscopicity [3]: extremely hygroscopic
